Measurements as given in patent publication US20240285670A1, “THERAPEUTIC TREATMENT OF TUMORS BY BLOCKING THE HEME SYNTHESIS-EXPORT AXIS” (Università degli Studi di Torino, priority 2021, published 2024).

What was measured:
[1] = tested on: C80 cells; assay: TCA cycle flux in C80 cells; type: cell-based, human; details: FLVCR1a-silenced vs scramble shRNA C80 cells
Source text: TCA cycle flux is reported in the centre of the figure and expressed as pmol CO2/h/mg protein. Data represent mean±SEM, n=3. For statistical analyses, an unpaired Student's t-test was used. **=p<0.01. Moreover, TCA cycle enzymes activities are reported in boxes and expressed as mU/mg mitochondrial proteins. Data represent mean±SEM, n=3. For statistical analyses, an unpaired Student's t-test was used; *=p<0.05, ***=p<0.001. […] Results are expressed as pmol CO2/h/mg protein. Data represent mean±SEM, n=3. For statistical analyses, an unpaired Student's t-test was used; *=p<0.05, **=p<0.01.
The glucose flux through TCA cycle was measured by radiolabeling cells with 2 μCi/ml [6-^14C]-glucose (55 mCi/mmol; PerkinElmer, Waltham, MA, USA, catalog n° NEC045X). Cell suspensions were incubated for 1 hour in a closed experimental system to trap the ^14CO2 developed from [^14C]-glucose. The reaction was stopped by injecting 0.5 ml of 0.8N HClO4. The amount of glucose transformed into CO2 through the TCA cycle was calculated as described (Riganti et al., 2004) and expressed as pmoles CO2/h/mg cell proteins.

[2] = tested on: C80 cells; assay: Flow cytometric analysis of apoptosis in C80 cells; type: cell-based, human; details: FLVCR1a-silenced vs scramble shRNA, synchronized C80 cells
Source text: (A) Proliferation of Caco2 cells assessed by crystal violet staining at the indicated days; bar=1000 μm. […] Staining quantification is reported in the bar graph as percentage of crystal violet stained area. Data represent mean±SEM, n=4. For statistical analyses, a two-way analysis of variance was used, followed by the Bonferroni correction for multiple group comparisons; *=p<0.05, ***=p<0.001. (B) Caco2 cells viability the day of plating (day 0) and three days after plaiting (day 3). The measure is considered a readout of cell proliferation. […] Data represent mean±SEM, n=3 wells. For statistical analyses, a two-way analysis of variance was used, followed by the Bonferroni correction for multiple group comparisons; *=p<0.05, **=p<0.01. (C, D, E) Representative flow cytometric analyses of apoptosis in synchronized Caco2 (C), SKCO1 (D) and C80 (E) cells. […] Data represent mean±SEM, n=4 wells pooled from two independent experiments. For statistical analyses, an unpaired Student's t-test was used; *=p<0.05, **=p<0.01. […]
Stained cells were analyzed using a FACSCanto II cytofluorimeter and processed with BD FACSDIVA Software v8.1 (BD Biosciences, Milan, IT; http://www.bdbiosciences.com/instruments/software/facsdiva/index.jsp/ RRID:SCR_001456), acquiring at least 10,000 events per sample or 25,000 cells per sample for cell cycle experiments.

FLVCR1a shRNA: shRNA specifically down-regulating FLVCR1a without targeting FLVCR1b; pLKO.1 lentiviral clone TRCN0000059599, antisense SEQ ID No.: 2 (antisense TTGCTAATGATGCTGTACTGG; sense CCAGTACAGCATCATTAGCAA)
TCA cycle flux [1]: Increased TCA cycle flux
apoptosis [2]: increased apoptosis
